Here are results for five compounds from patent EP4803513A1, “SUBSTITUTED QUINAZOLINE COMPOUND, PREPARATION METHOD THEREFOR, PHARMACEUTICAL COMBINATION THEREOF, AND USE THEREOF” (Hongyun Biotech Co., Ltd., priority 2023, dated 2025).

For experiment [1], the system named is GA6208. Put plainly: In vitro activity test of gastric cancer PDX (CellTiter-Glo), GA6208. The class given is cell-based. To be noted: PDX GA6208, gastric cancer with high BRK expression, 168 hours. Here is the method: (§1) Patient-derived xenograft (PDX) models are methods in which tumor tissue from cancer patients is transplanted into severely immunodeficient mice for culture and passaging, and used to test compound activity. The compounds of the present invention were tested using three PDX samples (GA0119, GA6208, and GA6871, all being gastric cancers with high BRK expression, all cultured in DMEM).
(§2) Preparation of PDX model tumor cell suspension: PDX model animals were housed in the animal facility, and tumor growth was observed weekly. When the PDX model tumor grew to an appropriate size, the tumor was removed and minced using sterile surgical instruments. Collagenase B digestion solution was added, and digestion was performed at 37°C for approximately 2 hours. Undigested tissue was removed by passing through a cell strainer. The strainer was washed with PBS 3-5 times, and the cell pellet was washed with PBS 4 times. Tumor cells were resuspended in culture medium. ACK lysis buffer was used to remove red blood cells when necessary.
(§3) Cell plating: The above cell suspension was taken and counted. The cell suspension concentration was adjusted to 5.75 × 10^5 cells/mL by dilution with culture medium. 3.5 mL of the cell suspension and 6.5 mL of 1% methylcellulose solution were mixed thoroughly. 100 µL of the cell suspension was added to each well of a 96-well plate (including compound-treated cell plates and T0 control cell plates), followed by incubation overnight under conditions of 37°C, 5% CO2, and 95% humidity.
(§4) Day 0 cell viability reading: The CellTiter-Glo® reagent and T0 control cell culture plate were equilibrated at room temperature for 30 minutes. 100 µL of CellTiter-Glo® reagent was added to each well. The plate was shaken on an orbital shaker for 20 minutes to ensure complete cell lysis. The cell culture plate was then equilibrated at room temperature for 10 minutes, and the chemiluminescence signal was read using an EnVision plate reader.
(§5) Day 0 compound treatment: The test compound (stock concentration 10 mM) was taken out and equilibrated at room temperature for use. The compound treatment cell plate was taken out. The test compound solution was added to the corresponding wells. The highest concentration for each compound was 30 µM, with 3-fold serial dilutions, 9 concentration points, each concentration point in triplicate (DMSO concentration normalized). The final concentration of DMSO in each cell well was 0.3%. The dosed 96-well plate was then placed in an incubator at 37°C, 5% CO2, and 95% humidity for continued culture for 168 hours.
(§6) Day 7 cell viability reading: The CellTiter-Glo® reagent and cell culture plate were equilibrated at room temperature for 30 minutes. 100 µL of CellTiter-Glo® reagent was added to each well. The plate was shaken on an orbital shaker for 20 minutes to lyse the cells. The cell plate was then placed at room temperature for 10 minutes to stabilize the luminescence signal, and the luminescence value was read using an EnVision plate reader.
(§7) Data processing: Data were analyzed using GraphPad Prism 9.0 software. A nonlinear sigmoidal curve regression was used to fit the data and generate a dose-response curve, from which the IC50 value was calculated. Cell survival rate (%) = (Lumtest compound - Lummedium control) / (Lumcell control - Lummedium control) × 100%. Lum represents the luminescence value.
In general terms: ATP-based viability assays read luminescence as a measure of living cells.

Experiment [2] deals with BRK-BaF3 cells. The experiment can be described thus: Cell antiproliferative activity assay (CCK-8), BRK-BaF3. The experiment is classed as cell-based. As to conditions: 72 h, CCK-8, 3 days incubation. The method, boiled down: (§8)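 Growth inhibition over 3 days, with compound serially diluted 3-fold from a 10 µM top concentration. Cells seeded at 100,000 cells/mL; WT-BaF3 medium carried 10% WEHI supernatant as the IL-3 source. Viability read by CCK-8 OD450 after 2-4 h; IC50 from blank-subtracted curve fit.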

Experiment [3] deals with gastric cancer xenograft model GA6208. The experiment can be described thus: In vivo efficacy evaluation of gastric cancer PDX (GA6208). On the set-up: species or system Balb/c nude mice. As to conditions: for Day 35 tumor volume (mean ± SEM): I-21 100 mg/kg oral gavage twice daily, I-81 100/80 mg/kg oral gavage twice daily, cisplatin 3 mg/kg tail vein once weekly, in mm³ (unit assumed); for Day 35 TGI (%): tumor growth inhibition vs vehicle control, same dosing as tumor volume. From the text:
Tumor tissue was collected from tumor-bearing mice of the gastric cancer xenograft model GA6208, cut into tumor pieces of 2-3 mm in diameter, and subcutaneously inoculated at the right front scapular region of Balb/c nude mice. When the mean tumor volume of the tumor-bearing mice reached approximately 150 mm^3 (100-200 mm^3), the mice were randomly divided into 4 groups of 8 mice each, and administered as follows: vehicle control (0.5% CMC-Na solution, oral gavage, twice daily), compound I-21 (100 mg/kg, oral gavage, twice daily), compound I-81 (100 mg/kg for the first 8 days, then 80 mg/kg for the subsequent 27 days, oral gavage, twice daily), and cisplatin (3 mg/kg, tail vein injection, once weekly), for a total of 35 days.

The subject of experiment [4] is WT-BaF3 cells. Put plainly: Cell antiproliferative activity assay (CCK-8), WT-BaF3 (broad-spectrum cytotoxicity). The class given is cell-based. To be noted: 72 h; WT-BaF3 cells (IL-3 supplemented), CCK-8, 3 days incubation. A digest of the protocol:
as §8

The test system of experiment [5] is GA0119. Put plainly: In vitro activity test of gastric cancer PDX (CellTiter-Glo), GA0119. As to conditions: PDX GA0119, gastric cancer with high BRK expression, 168 hours. The class given is cell-based. The protocol:
as §1, §2, §3, §4
Day 0 compound treatment: The test compound (stock concentration 10 mM) was taken out and equilibrated at room temperature for use. The compound treatment cell plate was taken out. The test compound solution was added to the corresponding wells. […]
Day 7 cell viability reading: The CellTiter-Glo® reagent and cell culture plate were equilibrated at room temperature for 30 minutes. […] The cell plate was then placed at room temperature for 10 minutes to stabilize the luminescence signal, and the luminescence value was read using an EnVision plate reader.
Data processing: Data were analyzed using GraphPad Prism 9.0 software. A nonlinear sigmoidal curve regression was used to fit the data and generate a dose-response curve, from which the IC50 value was calculated. […] Lum represents the luminescence value.

The subject of experiment [6] is GA6871. Put plainly: In vitro activity test of gastric cancer PDX (CellTiter-Glo), GA6871. To be noted: PDX GA6871, gastric cancer with high BRK expression, 168 hours. The class given is cell-based. Here is the method: as §1, §2, §3, §4, §5, §6, §7
Experiment [7] concerns T47D cells. Put plainly: Cell antiproliferative activity assay (CCK-8), T47D. The class given is cell-based. To be noted: Homo sapiens, 72 h, breast cancer cell line T47D, incubation for 3 days. Here is the method: BRK-BaF3, WT-BaF3, WEHI cell line, and breast cancer cell line T47D were cultured using RPMI 1640 Basal medium or DMEM (Dulbecco's Modified Eagle Medium) (Shanghai Peiyuan Biotechnology, L220KJ), supplemented with 10% FBS (Gibco, REF 10099-141C) and 1% P/S (Shanghai Peiyuan Biotechnology, S110JV), in an incubator (Thermo 3020) at 37°C with 5% CO2. Cell viability was above 95%. Cells were passaged at a 3:1 ratio every 3-4 days. For WT-BaF3 cells, WEHI cells were first cultured, and their culture supernatant was filtered through a 0.22 µm filter. This supernatant was added at 10% to the regular culture medium to supplement IL-3 required for WT-BaF3 cell proliferation, which served as the culture medium for WT-BaF3. For testing, cells were first collected and counted, then prepared into a cell suspension at 100,000 cells/mL and plated at 100 µL per well. Drug concentrations started from 10 µM and were serially diluted 3:1. After incubation for 3 days, 20 µL of CCK-8 detection reagent (Targetmol C005) was added to each well. After incubation for 2-4 hours, OD450 was measured using a microplate reader (Varioskan LUX, Thermo Scientific). After subtracting the blank background, the curve was fitted and the IC50 was calculated using XLfit software.
In addition, the following table exemplarily lists the IC50 values of some compounds of the present invention against T47D cells.

Bounds are passed on as bounds.

In general, IC50 refers to the midpoint of a concentration-inhibition curve. Read a high IC50 as a need for much substance. Consider `Cc1nn(CCO)cc1Nc1ncc2cc(-c3cccnc3)cc(C(C)C)c2n1` [I-21], for which the IC50 in experiment [1] was 620 nM; in experiment [2], ≤ 20 nM; in experiment [4], > 2500 nM; in experiment [5] it was 1140 nM; in experiment [6] it was 2130 nM. The “Day 35 tumor volume (mean ± SEM)” value in experiment [3] is listed as 782.88±71.02. In addition, the “Day 35 TGI (%)” value in experiment [3] is 44.59%.

For the compound `Cc1nn(CCO)cc1Nc1ncc2cc(-c3nccnc3C)cc(C(C)C)c2n1` [I-81], the IC50 in experiment [1] was 3920 nM; in experiment [2], ≤ 20 nM; in experiment [4], > 2500 nM; in experiment [5], 4540 nM; in experiment [6], 7130 nM. In experiment [3], the “Day 35 tumor volume (mean ± SEM)” value was determined as 595.03±30.63. Besides, in experiment [3], the “Day 35 TGI (%)” value is 57.89%.

Take `Cc1nn(CCO)cc1Nc1ncc2cc(-c3nccnc3C)cc(C(F)(F)F)c2n1` [I-109]: the IC50 was 8530 nM in experiment [1], ≤ 20 nM in experiment [2], > 2500 nM in experiment [4] and 17000 nM in experiment [6].

Take `COc1c(P(C)(C)=O)ccc(Nc2ncc3cc(-c4nccnc4C)cc(C4CC4)c3n2)c1F` [II-69]: the half-inhibitory concentration (IC50) is 5630 nM in experiment [1]; ≤ 20 nM in experiment [2]; ≤ 500 nM in experiment [7]; > 2500 nM in experiment [4]; 8010 nM in experiment [5]; 9280 nM in experiment [6].

For the compound `N.N.[Cl][Pt][Cl]` [cisplatin, reference compound], the figures for the IC50 in experiment [1], in experiment [5] and in experiment [6] were 298 nM, 1380 nM and 4280 nM, respectively. The “Day 35 tumor volume (mean ± SEM)” value in experiment [3] is listed as 1250.42±137.64. In addition, in experiment [3], the “Day 35 TGI (%)” value is 11.50%.
